{"source": "ChEMBL document CHEMBL6103629", "about": "(J Med Chem, 2025)", "key": {"CWR22R": {"system": "CWR22R", "assay": "Antiproliferative activity against human 22Rv1 cells incubated for 120 hrs by Cell-titer Glo luminescent assay", "details": "22Rv1, 120 h"}, "[1]": {"molecular_target": "Serine/threonine-protein kinase ATR (Homo sapiens, UniProt Q13535)", "sequence (Q13535 whole entry)": "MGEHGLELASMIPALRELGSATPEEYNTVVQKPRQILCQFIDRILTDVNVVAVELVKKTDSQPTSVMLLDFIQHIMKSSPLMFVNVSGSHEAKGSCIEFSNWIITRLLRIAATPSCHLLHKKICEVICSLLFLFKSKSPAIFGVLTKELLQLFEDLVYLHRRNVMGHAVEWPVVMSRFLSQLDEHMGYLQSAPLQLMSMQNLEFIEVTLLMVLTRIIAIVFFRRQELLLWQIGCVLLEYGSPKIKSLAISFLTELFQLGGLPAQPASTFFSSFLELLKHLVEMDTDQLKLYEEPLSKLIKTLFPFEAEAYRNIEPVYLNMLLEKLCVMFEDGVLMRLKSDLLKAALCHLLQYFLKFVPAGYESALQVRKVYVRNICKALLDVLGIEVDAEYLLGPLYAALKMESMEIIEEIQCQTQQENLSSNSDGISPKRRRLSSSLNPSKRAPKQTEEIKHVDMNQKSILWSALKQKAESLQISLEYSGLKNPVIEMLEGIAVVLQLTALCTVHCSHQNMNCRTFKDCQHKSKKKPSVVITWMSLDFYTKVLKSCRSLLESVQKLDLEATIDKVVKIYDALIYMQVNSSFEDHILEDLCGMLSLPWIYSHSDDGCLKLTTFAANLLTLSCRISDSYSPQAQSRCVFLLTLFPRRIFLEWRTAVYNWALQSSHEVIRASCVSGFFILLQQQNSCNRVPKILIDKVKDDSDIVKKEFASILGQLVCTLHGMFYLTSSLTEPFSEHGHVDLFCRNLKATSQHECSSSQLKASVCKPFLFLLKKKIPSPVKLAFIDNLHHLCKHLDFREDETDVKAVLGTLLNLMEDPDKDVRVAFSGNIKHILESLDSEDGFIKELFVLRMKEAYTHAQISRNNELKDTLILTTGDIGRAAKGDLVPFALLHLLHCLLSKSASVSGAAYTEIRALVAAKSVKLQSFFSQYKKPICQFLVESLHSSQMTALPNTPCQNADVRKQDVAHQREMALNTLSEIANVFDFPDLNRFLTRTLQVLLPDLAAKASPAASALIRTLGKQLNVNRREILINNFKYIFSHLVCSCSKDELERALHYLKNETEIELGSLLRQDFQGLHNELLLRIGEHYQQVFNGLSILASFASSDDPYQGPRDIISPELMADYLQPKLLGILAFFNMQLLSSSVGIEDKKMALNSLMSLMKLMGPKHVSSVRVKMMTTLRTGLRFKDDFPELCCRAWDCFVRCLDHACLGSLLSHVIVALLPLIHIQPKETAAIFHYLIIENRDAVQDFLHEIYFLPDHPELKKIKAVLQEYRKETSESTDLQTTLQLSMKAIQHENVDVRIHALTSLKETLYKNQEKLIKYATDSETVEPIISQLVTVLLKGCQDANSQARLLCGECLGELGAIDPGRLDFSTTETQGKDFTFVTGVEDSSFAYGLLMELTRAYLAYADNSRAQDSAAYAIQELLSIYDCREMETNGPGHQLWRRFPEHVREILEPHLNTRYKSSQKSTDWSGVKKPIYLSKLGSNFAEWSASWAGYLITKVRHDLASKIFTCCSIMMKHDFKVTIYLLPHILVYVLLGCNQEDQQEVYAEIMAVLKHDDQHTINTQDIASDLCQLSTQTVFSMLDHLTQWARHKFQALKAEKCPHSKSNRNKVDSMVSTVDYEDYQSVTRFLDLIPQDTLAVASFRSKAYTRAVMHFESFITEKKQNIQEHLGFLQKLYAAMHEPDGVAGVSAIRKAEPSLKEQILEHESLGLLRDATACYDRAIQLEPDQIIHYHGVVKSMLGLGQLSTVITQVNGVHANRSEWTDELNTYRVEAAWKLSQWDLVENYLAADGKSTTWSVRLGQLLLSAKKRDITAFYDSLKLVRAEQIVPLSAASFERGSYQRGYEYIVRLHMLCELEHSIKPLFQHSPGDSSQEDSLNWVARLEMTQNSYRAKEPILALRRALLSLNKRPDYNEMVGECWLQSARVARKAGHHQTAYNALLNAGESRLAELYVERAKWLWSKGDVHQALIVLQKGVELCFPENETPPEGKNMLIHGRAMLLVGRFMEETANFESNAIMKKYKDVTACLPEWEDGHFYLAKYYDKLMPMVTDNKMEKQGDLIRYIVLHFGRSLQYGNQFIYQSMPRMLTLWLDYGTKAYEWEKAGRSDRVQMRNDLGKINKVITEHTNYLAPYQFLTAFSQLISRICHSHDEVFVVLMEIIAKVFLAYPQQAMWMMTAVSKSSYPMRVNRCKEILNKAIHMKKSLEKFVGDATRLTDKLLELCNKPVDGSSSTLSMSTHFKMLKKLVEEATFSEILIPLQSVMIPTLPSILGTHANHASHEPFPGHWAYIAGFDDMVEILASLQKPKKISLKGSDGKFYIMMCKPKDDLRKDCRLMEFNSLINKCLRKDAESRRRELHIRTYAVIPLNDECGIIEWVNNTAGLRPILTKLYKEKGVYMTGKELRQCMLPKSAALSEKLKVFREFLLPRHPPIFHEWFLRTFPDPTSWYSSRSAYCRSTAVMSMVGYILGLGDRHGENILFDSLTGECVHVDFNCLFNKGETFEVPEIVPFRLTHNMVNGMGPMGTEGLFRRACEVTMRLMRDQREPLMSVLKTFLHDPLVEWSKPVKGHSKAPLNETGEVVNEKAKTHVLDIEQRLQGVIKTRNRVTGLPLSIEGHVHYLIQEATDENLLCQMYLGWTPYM", "assay": "Inhibition of ATR (unknown origin) assessed as reduction in p53 phosphorylation level incubated for 30 mins by TR-FRET assay"}, "NCI-H146": {"system": "NCI-H146", "assay": "Antiproliferative activity against human NCI-H146 cells", "assay_type": "functional, cell-based"}, "NCI-H1703": {"system": "NCI-H1703", "assay": "Antitumor activity against human NCI-H1703 cells xenografted in female Balb/c nude mouse assessed as tumor growth inhibition at 50 mg/kg […] administered as 3 days on and 4 days off schedule for 4 weeks relative to control", "assay_type": "functional", "details": "NCI-H1703, 672 h, time 28 day, read-out: TGI"}}}
{"compound": "Cc1nn(-c2cncc(Cl)c2)c(C)c1-c1cc(N2CC3CCC(C2)O3)nc2c(-c3ccn[nH]3)cnn12", "values": [{"measurement": "IC50", "setting": "CWR22R", "value": 675, "unit": "nM"}]}
{"compound": "Cc1cncc(-n2nc(C)c(-c3cc(N4CC5CCC(C4)O5)nc4c(-c5ccn[nH]5)cnn34)c2C)c1", "values": [{"measurement": "IC50", "setting": "[1]", "value": 10, "unit": "nM"}, {"measurement": "IC50", "setting": "CWR22R", "value": 234, "unit": "nM"}]}
{"compound": "Cn1cncc1-c1c(F)cncc1NC(=O)c1c(N)nn2cc(F)cnc12", "note": "[TUVUSERTIB]", "values": [{"measurement": "IC50", "setting": "[1]", "value": "< 1000", "unit": "nM"}, {"measurement": "IC50", "setting": "NCI-H146", "value": 730, "unit": "nM"}]}
{"compound": "Cc1nn(C2CCCNC2)c(C)c1-c1cc(N2CC3CCC(C2)O3)nc2c(-c3ccn[nH]3)cnn12", "note": "(stereo unspecified)", "values": [{"measurement": "IC50", "setting": "CWR22R", "value": 4530, "unit": "nM"}]}
{"compound": "Cc1nn(-c2cccnc2)c(C)c1-c1cc(N2C3CCC2COC3)nc2c(-c3ccn[nH]3)cnn12", "values": [{"measurement": "IC50", "setting": "CWR22R", "value": 332, "unit": "nM"}]}
{"compound": "Cc1n[nH]c(C)c1-c1cc(N2CC3CCC(C2)O3)n2ncc(-c3cnn(C)c3C)c2n1", "values": [{"measurement": "IC50", "setting": "[1]", "value": "> 500", "unit": "nM"}, {"measurement": "IC50", "setting": "CWR22R", "value": "> 10000", "unit": "nM"}]}
{"compound": "Cc1n[nH]c(C)c1-c1cc(N2CC3CCC(C2)O3)n2ncc(-c3ccccc3)c2n1", "values": [{"measurement": "IC50", "setting": "[1]", "value": "> 500", "unit": "nM"}, {"measurement": "IC50", "setting": "CWR22R", "value": "> 10000", "unit": "nM"}]}
{"compound": "Cc1n[nH]c(C)c1-c1cc(N2CC3CCC(C2)O3)n2ncc(-c3cn[nH]c3)c2n1", "values": [{"measurement": "IC50", "setting": "CWR22R", "value": 1720, "unit": "nM"}]}
{"compound": "Cc1n[nH]c(C)c1-c1cc(N2CC3CCC(C2)O3)n2ncc(-c3ccnn3C)c2n1", "values": [{"measurement": "IC50", "setting": "CWR22R", "value": 6730, "unit": "nM"}]}
{"compound": "Cc1nn(C2CCNCC2)c(C)c1-c1cc(N2CC3CCC(C2)O3)nc2c(-c3ccn[nH]3)cnn12", "values": [{"measurement": "IC50", "setting": "CWR22R", "value": 4340, "unit": "nM"}]}
{"compound": "Cc1nn(-c2cncc(C#N)c2)c(C)c1-c1cc(N2CC3CCC(C2)O3)nc2c(-c3ccn[nH]3)cnn12", "values": [{"measurement": "IC50", "setting": "CWR22R", "value": 1410, "unit": "nM"}]}
{"compound": "COc1cncc(-n2nc(C)c(-c3cc(N4CC5CCC(C4)O5)nc4c(-c5ccn[nH]5)cnn34)c2C)c1", "values": [{"measurement": "IC50", "setting": "CWR22R", "value": 370, "unit": "nM"}]}
{"compound": "Nc1ccn([C@@H]2O[C@H](CO)[C@@H](O)C2(F)F)c(=O)n1", "note": "[GEMCITABINE]", "values": [{"measurement": "inhibition in vivo at 50 mg/kg", "setting": "NCI-H1703", "value": 76.7, "unit": "%"}]}
{"compound": "Cc1nn(-c2ccncc2)c(C)c1-c1cc(N2CC3CCC(C2)O3)nc2c(-c3ccn[nH]3)cnn12", "values": [{"measurement": "IC50", "setting": "CWR22R", "value": 1790, "unit": "nM"}]}
{"compound": "Cc1nn(-c2cncc(C(F)(F)F)c2)c(C)c1-c1cc(N2CC3CCC(C2)O3)nc2c(-c3ccn[nH]3)cnn12", "values": [{"measurement": "IC50", "setting": "CWR22R", "value": 2820, "unit": "nM"}]}
{"compound": "Cc1cc(-c2cnn3c(-c4c(C)nn(-c5cccnc5)c4C)cc(N4CC5CCC(C4)O5)nc23)[nH]n1", "values": [{"measurement": "IC50", "setting": "CWR22R", "value": 150, "unit": "nM"}]}
{"compound": "Cc1nn(-c2cccnc2)c(C)c1-c1cc(N2C[C@@H]3C[C@H]2CO3)nc2c(-c3ccn[nH]3)cnn12", "values": [{"measurement": "IC50", "setting": "CWR22R", "value": 4080, "unit": "nM"}]}
